The values below come from ChEMBL document CHEMBL5532640, “Medicinal chemistry strategies targeting NLRP3 inflammasome pathway: A recent update from 2019 to mid-2023” (Eur J Med Chem, 2023).

SMILES strings stand for the structures. In brackets after ≈: the same amount, converted by molar mass.

Data set [1] in a line: Inhibition of LPS/nigericin induced LDH release in mouse J774.A1 cells. It counts as functional, cell-based. (In general: Release of lactate dehydrogenase indicates damage to the cell membrane.)
In data set [2] the target is T1, NACHT, LRR and PYD domains-containing protein 3 (Mus musculus, UniProt Q8R4B8). The data set is described as follows: Covalent inhibition of NLRP3 in mouse BMDMs assessed as reduction in LPS/nigericin induced IL-1beta secretion pretreated with LPS for 3 hrs followed by compound addition for 30 mins prior to nigericin addition and measured after 30 mins by ELISA. It counts as cell-based, BMDM. Background: In an ELISA, binding on a coated surface is turned into a signal by an enzyme label.

Data set [3] addresses T2, NACHT, LRR and PYD domains-containing protein 3 (Homo sapiens, UniProt Q96P20). The data set is described as follows: Inhibition of NLRP3 in human THP-1 cells assessed as reduction in LPS/ATP induced IL-1beta release at 10 uM preincubated with LPS for 4 hrs followed by compound addition for 1 hr prior to ATP stimulation for 1.5 hrs by ELISA relative to control. The format is cell-based. The following applies: time 2.5 hrs.

For data set [4], the target named is T1, NACHT, LRR and PYD domains-containing protein 3. The data set is described as follows: Inhibition of NLRP3 in mouse BMDMs assessed as reduction in LPS/ATP-induced IL-1beta release preincubated for 30 mins in presence of LPS followed by ATP addition and measured after 1 hr by ELISA. It counts as cell-based, BMDM.
Data set [5] is described as follows: Stability in human liver microsomes assessed as compound remaining after 60 mins. The following applies: read-out: Stability. The format is ADME, Microsome. On the technique in general: Liver microsomes are vesicles of endoplasmic reticulum, rich in cytochrome P450 enzymes.
Data set [6] can be described thus: Stability in mouse liver microsomes assessed as compound remaining after 60 mins. The format is ADME, Microsome. Conditions: read-out: Stability.
Data set [7] in a line: Half life in C57BL/6 mouse at 20 mg/kg, po. The format is ADME, organism-based. Conditions: in vivo.
Data set [8] concerns the target T1, NACHT, LRR and PYD domains-containing protein 3. The data set is described as follows: Inhibition of NLRP3 inflammasome in mouse J774.A1 cells assessed as decrease in LPS/nigericin induced IL-1beta level preincubated with LPS for 4 hrs followed by compound addition for 1 hr in presence nigericin by ELISA. It counts as cell-based.
The target is the same in data set [9]. The data set is described as follows: Inhibition of NLRP3 in mouse J774.A1 cells assessed as reduction in LPS/ATP induced IL-1beta secretion. The format is cell-based.
Data set [10] has the same target. The data set is described as follows: Inhibition of NLRP3 in LPS/ATP induced mouse J774.A1 cells. It counts as cell-based.
A short description of data set [11]: Cytotoxicity against mouse J774.A1 cells. It counts as toxicity, cell-based. The following applies: read-out: TC50 (the source's name).
The target in data set [12] is T2, NACHT, LRR and PYD domains-containing protein 3. Nature of the data set: Inhibition of NLRP3 in LPS/ATP induced human THP1 cells. The format is cell-based, THP-1.
For data set [13] the target is unchanged. Nature of the data set: Inhibition of NLRP3 inflammasome in human MDM cells assessed as reduction in LPS/nigericin induced IL-1beta secretion […] prior to nigericin addition and measured after 5 hrs by ELISA. The format is cell-based.
Data set [14] in a line: Cmax in human at 1000 mg per day, po administered for 8 consecutive days. The format is ADME, organism-based. Conditions: in vivo.
In data set [15] the target is T1, NACHT, LRR and PYD domains-containing protein 3. The data set is described as follows: Inhibition of NLRP3 inflammasome in mouse BMDMs assessed as reduction in IL-1beta activity preincubated with LPS for 4 hrs followed by compound addition for 30 mins prior to nigericin addition and measured after 1 hr by ELISA. It counts as cell-based, BMDM.
A short description of data set [16]: Solubility of the compound at pH 1.5. The format is physicochemical. The following applies: buffer.
The nature of data set [17]: Inhibition of porcine whole blood NLRP3 assessed as reduction in LPS/ATP induced IL-1beta secretion preincubated for 3 hrs in presence of LPS followed by ATP addition and measured after 1 hr by immunoassay. Conditions: Sus scrofa.

T2 sequence (Q96P20 whole entry, the tested form may be a part): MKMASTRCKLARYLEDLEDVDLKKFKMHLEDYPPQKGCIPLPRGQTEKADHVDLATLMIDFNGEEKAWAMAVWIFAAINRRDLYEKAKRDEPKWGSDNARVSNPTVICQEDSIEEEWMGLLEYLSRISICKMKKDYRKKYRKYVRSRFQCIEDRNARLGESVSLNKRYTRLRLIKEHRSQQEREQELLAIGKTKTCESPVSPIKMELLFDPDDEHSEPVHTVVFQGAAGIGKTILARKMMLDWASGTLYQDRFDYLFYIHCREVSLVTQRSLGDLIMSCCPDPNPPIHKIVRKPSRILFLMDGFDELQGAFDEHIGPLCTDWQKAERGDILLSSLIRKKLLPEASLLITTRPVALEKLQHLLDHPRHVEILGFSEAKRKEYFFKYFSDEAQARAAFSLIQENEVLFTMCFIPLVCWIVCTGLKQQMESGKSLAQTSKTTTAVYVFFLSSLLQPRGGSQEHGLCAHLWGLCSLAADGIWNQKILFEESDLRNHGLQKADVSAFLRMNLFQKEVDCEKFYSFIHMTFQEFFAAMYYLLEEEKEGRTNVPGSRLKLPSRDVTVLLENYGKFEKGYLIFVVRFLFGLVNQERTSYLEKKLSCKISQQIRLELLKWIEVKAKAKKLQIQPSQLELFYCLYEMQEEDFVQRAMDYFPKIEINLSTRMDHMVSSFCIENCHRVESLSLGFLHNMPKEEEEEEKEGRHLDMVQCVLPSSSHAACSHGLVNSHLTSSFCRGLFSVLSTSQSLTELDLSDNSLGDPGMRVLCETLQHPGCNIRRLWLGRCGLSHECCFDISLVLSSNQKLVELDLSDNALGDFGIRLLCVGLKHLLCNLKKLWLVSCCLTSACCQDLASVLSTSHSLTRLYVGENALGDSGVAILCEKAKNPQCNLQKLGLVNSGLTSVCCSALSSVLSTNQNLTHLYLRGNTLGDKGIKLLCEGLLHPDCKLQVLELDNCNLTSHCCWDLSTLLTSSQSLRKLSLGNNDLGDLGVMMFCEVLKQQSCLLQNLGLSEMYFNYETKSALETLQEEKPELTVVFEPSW
T1 sequence (Q8R4B8 whole entry, the tested form may be a part): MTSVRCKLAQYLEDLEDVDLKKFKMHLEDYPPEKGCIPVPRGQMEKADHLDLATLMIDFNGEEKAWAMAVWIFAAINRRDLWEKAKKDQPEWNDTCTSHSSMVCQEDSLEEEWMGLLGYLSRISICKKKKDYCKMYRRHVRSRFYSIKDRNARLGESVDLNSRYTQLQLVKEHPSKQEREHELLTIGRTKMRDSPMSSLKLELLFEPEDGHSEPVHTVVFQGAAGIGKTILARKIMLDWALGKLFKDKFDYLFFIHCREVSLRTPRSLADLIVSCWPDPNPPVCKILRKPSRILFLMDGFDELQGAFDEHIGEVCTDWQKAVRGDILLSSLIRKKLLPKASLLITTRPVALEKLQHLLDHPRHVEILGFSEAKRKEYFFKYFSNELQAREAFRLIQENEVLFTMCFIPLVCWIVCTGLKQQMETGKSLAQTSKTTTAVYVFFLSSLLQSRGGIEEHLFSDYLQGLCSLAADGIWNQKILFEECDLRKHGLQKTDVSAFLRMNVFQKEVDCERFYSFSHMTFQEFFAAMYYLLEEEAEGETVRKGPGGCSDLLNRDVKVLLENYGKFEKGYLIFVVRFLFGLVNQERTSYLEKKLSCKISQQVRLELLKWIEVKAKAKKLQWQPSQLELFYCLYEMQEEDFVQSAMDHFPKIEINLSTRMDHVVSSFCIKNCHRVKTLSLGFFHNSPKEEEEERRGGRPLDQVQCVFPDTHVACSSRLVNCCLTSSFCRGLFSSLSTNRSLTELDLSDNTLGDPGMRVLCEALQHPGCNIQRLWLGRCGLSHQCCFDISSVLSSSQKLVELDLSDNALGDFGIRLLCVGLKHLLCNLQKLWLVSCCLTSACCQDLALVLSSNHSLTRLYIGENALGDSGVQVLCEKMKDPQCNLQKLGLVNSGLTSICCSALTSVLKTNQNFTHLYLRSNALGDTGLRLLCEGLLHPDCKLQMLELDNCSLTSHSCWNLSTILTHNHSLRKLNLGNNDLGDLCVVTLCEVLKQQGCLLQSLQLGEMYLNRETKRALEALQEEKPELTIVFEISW

For orientation: IC50 means the concentration at which inhibition is half-maximal. In turn, `CO[C@@H]1C2=C(C(=O)C(=O)C(C(C)C)=C2)[C@@]2(C)CCCC(C)(C)[C@@H]2[C@H]1O` came in with a half-maximal inhibitory concentration (IC50) in [1] of 230 nM. The compound `CC(=O)O[C@H]1C=C2C=C(C(C)C)C(=O)C(O)=C2[C@@]2(C)CCCC(C)(C)[C@H]12` had an IC50 in data set [1] of 230 nM.

Take `O=C(CBr)NCc1ccc(C(F)(F)F)cc1`: in [2], the IC50 was determined as 183 nM. The inhibition is how much of the control response was suppressed. As to `C=C(Cc1ccccc1Cl)C(=O)N1CCC(n2c(=O)[nH]c3ccccc32)CC1`, in data set [3], the inhibition amounted to 14.4%. Consider `CC(C)n1ccc(S(=O)(=O)NC(=O)Nc2c3c(cc4c2CCC4)CCC3)n1` [INZOMELID], for which the IC50 in [4] was 16 nM. By half-life is commonly meant how long it takes for the measured level to halve. The low end stands for fast loss, the high end for slow loss. For the compound `CC(C)(O)c1coc(S(=O)(=O)NC(=O)Nc2c3c(cc4c2CCC4)CCC3)c1`, the remaining at 1 h in [5] and in data set [6] was above 70% each time. The half-life in data set [7] is 3.27 h. For `O=C(CCc1ccccc1Cl)NCCn1c(=O)[nH]c2ccccc21`, the inhibition in [3] was determined as 20.3%. Take `O=C(O)Cn1c(=O)n(C(=O)CCc2ccccc2Cl)c2ccccc21`: the inhibition in data set [3] was 21.1%. For `CC1(C)OC(=O)C=C[C@@]2(C)[C@H]1CC(=O)[C@@]1(C)C3=CC[C@@H](C4=CC(=O)O[C@@H]4O)[C@]3(C)CC[C@@H]12`, the half-inhibitory concentration (IC50) in data set [8] worked out at 3200 nM. `CC1(C)CCC[C@@]2(C)C1=C(O)C(=O)c1cc(C(C)(C)O)c(O)c(O)c12` displayed an IC50 in data set [1] of 230 nM. Turning to `CCOCCOc1ccc(/C=C/c2cc(OC)cc(OC)c2/C=C/[N+](=O)[O-])cc1`, the IC50 in data set [9] is 2410 nM. Regarding `CCO[C@H]1C[C@H]2C(C)(C)CCC[C@]2(C)C2=C1C=C(C(C)C)C(=O)C2=O`, 230 nM corresponded to half-maximal inhibition in data set [1] (IC50). Regarding `NS(=O)(=O)c1ccc(CCNC(=O)/C=C/S(=O)(=O)c2ccccc2Cl)cc1`, it took 1830 nM to reach half-maximal inhibition in data set [10] (IC50). Further, the CC50 in [11] worked out at 27500 nM. In data set [12], `C=C1C(=O)[C@]23[C@H](O)[C@H]1CC[C@H]2[C@@]12CO[C@]3(O)[C@@H](O)[C@@H]1C(C)(C)CC[C@@H]2O` [ORIDONIN] returned an IC50 of 5180 nM. As to `O=C(CCc1ccccc1Cl)N1CCC(n2c(=O)[nH]c3ccccc32)CC1`, in data set [3], the inhibition was determined as 10.3%.

Take `CC1(C)OC(=O)C=C[C@]2(C)[C@H]3CC[C@@]4(C)[C@H](C5=CC(=O)NC5=O)C[C@H]5O[C@]54[C@]3(C)OC(=O)C[C@@H]12`: the IC50 in data set [8] came to 3200 nM. The term Cmax denotes the peak of the concentration-time curve. For `CS(=O)(=O)CCC#N`, the IC50 in data set [13] is 1000 nM. In data set [14], this compound had a Cmax of 41400 ng/mL.

As to `COc1c(O)cc2c(c1C)C(=O)C=C1[C@@]2(C)CC[C@@]2(C)[C@@H]3C[C@@H](C)C(=O)[C@@H](O)[C@]3(C)CC[C@]12C`, in data set [15], the IC50 turned out to be 1150 nM. With `CC(=O)O[C@H]1[C@@H](OC(C)=O)[C@@]2(C)C3=CC[C@@H](C4=CC(=O)O[C@@H]4O)[C@]3(C)CC[C@@H]2[C@@]2(C)C=CC(=O)OC(C)(C)[C@H]12`, the IC50 in data set [8] amounted to 3200 nM. Compound `O=C(/C=C/S(=O)(=O)c1ccccc1Cl)OCCc1ccccc1` yielded an IC50 in [10] of 920 nM. The CC50 in data set [11] is 41800 nM. As usually defined, the solubility is the dissolved amount per volume that the medium holds. Read a low solubility as a poorly soluble substance. For `CN[C@@H]1COc2c(S(=O)(=O)NC(=O)Nc3c4c(cc5c3CCC5)CCC4)cnn2C1`, the concentration in solution in data set [16] (solubility) was 5760 µg/mL (≈ 13.3 mM). The compound `CCO[C@@H]1C[C@H]2C(C)(C)CCC[C@]2(C)C2=C1C=C(C(C)C)C(=O)C2=O` came in with an IC50 in data set [1] of 230 nM. For the compound `N#C/N=C(\NCc1ccccc1)NC1CCN(C(=O)CCc2ccccc2Cl)CC1`, the inhibition in data set [3] is 25.2%. Regarding `CC(C)C1=CC2=C[C@H](O)[C@H]3C(C)(C)CCC[C@]3(C)[C@@]2(O)C(=O)C1=O`, inhibition in data set [1] was half-maximal at 230 nM (IC50). Consider `CC(=O)O[C@@H]1C[C@H]2C(C)(C)OC(=O)C=C[C@]2(C)[C@H]2CC[C@]3(C)C(=CC[C@H]3C3=CC(=O)O[C@@H]3O)[C@@]21C`, for which the IC50 in data set [8] was found to be 3200 nM. In the case of `CCN1CCC(S(=O)(=O)NC(=O)Nc2c3c(cc4c2CCC4)CCC3)CC1` [SELNOFLAST], in data set [17], the IC50 amounted to 350 nM.

Regarding `Cc1ccc(S(=O)(=O)/C=C/C#N)cc1`, in data set [11], the CC50 is 6400 nM. Turning to `CC1=C(O)C(=O)C=C2C1=CC=C1[C@@]2(C)[C@@H](Br)C[C@@]2(C)[C@@H]3C[C@@H](C)C(=O)C[C@]3(C)CC[C@]12C`, in [15], the IC50 was determined as 190 nM.
